# In PubChem BioAssay (NCI):
#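 Values below derive from 48-hour exposures of cells grown in 96-well plates, with endpoints linearly interpolated between the two concentrations bracketing the appropriate inhibition level. TGI: total growth inhibition.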
# Columns and labels:
# Experiment in all cases: NCI-60 cell line screen, 48 h
# [1] = test system: 786-0 renal
# [2] = test system: A498 renal
# [3] = test system: A549 NSCLC
# [4] = test system: ACHN renal
# [5] = test system: BT-549 breast
# [6] = test system: CAKI-1 renal
# [7] = test system: CCRF-CEM leukemia
# [8] = test system: COLO 205 colon
# [9] = test system: DU-145 prostate
# [10] = test system: EKVX NSCLC
# [11] = test system: HCC-2998 colon
# [12] = test system: HCT-116 colon
# [13] = test system: HCT-15 colon
# [14] = test system: HL-60(TB) leukemia
# [15] = test system: HOP-62 NSCLC
# [16] = test system: HOP-92 NSCLC
# [17] = test system: HS 578T breast
# [18] = test system: HT29 colon
# [19] = test system: IGROV1 ovarian
# [20] = test system: K-562 leukemia
# [21] = test system: KM12 colon
# [22] = test system: LOX IMVI melanoma
# [23] = test system: M14 melanoma
# [24] = test system: MALME-3M melanoma
# [25] = test system: MCF7 breast
# [26] = test system: MDA-MB-231 breast
# [27] = test system: MDA-MB-435
# [28] = test system: MDA-N
# [29] = test system: MOLT-4 leukemia
# [30] = test system: NCI-H226 lung
# [31] = test system: NCI-H23 lung
# [32] = test system: NCI-H460 lung
# [33] = test system: NCI-H522 lung
# [34] = test system: NCI/ADR-RES ovarian
# [35] = test system: OVCAR-3 ovarian
# [36] = test system: OVCAR-4 ovarian
# [37] = test system: OVCAR-5 ovarian
# [38] = test system: OVCAR-8 ovarian
# [39] = test system: PC-3 prostate
# [40] = test system: RPMI-8226 leukemia
# [41] = test system: RXF 393 renal
# [42] = test system: SF-268 CNS
# [43] = test system: SF-295 CNS
# [44] = test system: SF-539 CNS
# [45] = test system: SK-MEL-2 melanoma
# [46] = test system: SK-MEL-28 melanoma
# [47] = test system: SK-MEL-5 melanoma
# [48] = test system: SK-OV-3 ovarian
# [49] = test system: SN12C renal
# [50] = test system: SNB-19 CNS
# [51] = test system: SNB-75 CNS
# [52] = test system: SR leukemia
# [53] = test system: SW-620 colon
# [54] = test system: T-47D breast
# [55] = test system: TK-10 renal
# [56] = test system: U251 CNS
# [57] = test system: UACC-257 melanoma
# [58] = test system: UACC-62 melanoma
# [59] = test system: UO-31 renal
structure (smiles),measurement,setting,value
Nc1cccc(C2CCCc3c2[nH]c2ccccc32)c1 (centres undefined),TGI,[1],41.5 µM
same,TGI,[2],28.9 µM
same,TGI,[3],47.7 µM
same,TGI,[4],76.8 µM
same,TGI,[5],41.9 µM
same,TGI,[6],69.2 µM
same,TGI,[7],57 µM
same,TGI,[8],43.6 µM
same,TGI,[9],> 100 µM
same,TGI,[10],67.5 µM
same,TGI,[11],61 µM
same,TGI,[12],34 µM
same,TGI,[13],40.5 µM
same,TGI,[14],43 µM
same,TGI,[15],> 100 µM
same,TGI,[16],42.7 µM
same,TGI,[17],43.7 µM
same,TGI,[18],33.4 µM
same,TGI,[19],39.8 µM
same,TGI,[20],48.7 µM
same,TGI,[21],49.8 µM
same,TGI,[22],25.4 µM
same,TGI,[23],62.4 µM
same,TGI,[24],48.3 µM
same,TGI,[25],54.7 µM
same,TGI,[26],37 µM
same,TGI,[27],41.1 µM
same,TGI,[28],37.4 µM
same,TGI,[29],54.1 µM
same,TGI,[30],47.9 µM
same,TGI,[31],46.4 µM
same,TGI,[32],73.6 µM
same,TGI,[33],34.1 µM
same,TGI,[34],38.8 µM
same,TGI,[35],> 100 µM
same,TGI,[36],> 100 µM
same,TGI,[37],45.8 µM
same,TGI,[38],34.8 µM
same,TGI,[39],53.9 µM
same,TGI,[40],56.6 µM
same,TGI,[41],39.3 µM
same,TGI,[42],56.4 µM
same,TGI,[43],64.5 µM
same,TGI,[44],40.6 µM
same,TGI,[45],37.8 µM
same,TGI,[46],> 100 µM
same,TGI,[47],33.1 µM
same,TGI,[48],70.4 µM
same,TGI,[49],32.7 µM
same,TGI,[50],72.7 µM
same,TGI,[51],36.1 µM
same,TGI,[52],31.4 µM
same,TGI,[53],42.6 µM
same,TGI,[54],54.7 µM
same,TGI,[55],> 100 µM
same,TGI,[56],28.9 µM
same,TGI,[57],69.1 µM
same,TGI,[58],31.1 µM
same,TGI,[59],> 100 µM
